Reference: patent publication US8796228B2, “Method for neutralizing fungi using sophorolipids and antifungal sophorolipids for use therein” (Synthezyme, LLC, priority 2004, dated 2014)

What was measured:
Test in all cases: Antifungal assay, growth inhibition by OD in 96 well plates
Format in all cases: cell-based
Details in all cases: 5 mg/ml sophorolipid solution, 48 hours at 30° C., OD at 400 nm vs control wells
[1] = system: Candida albicans
Protocol: (§1) Sophorolipid solution was prepared by adding 15 mg of compound in 1 ml sucrose solution, pH 8.5.
(§2) All assay were carried out in 96 well plates using Yeast extract-Maltose medium. The logarithmic growing cultures were incubated with 5 mg/ml of sophorolipids for 48 hours at 30° C. Following incubation, the wells were measured for Optical Density (OD) at 400 nm using microtitre plate readers. Percent (%) inhibition of growth was calculated corresponding to the OD in control wells containing no sophorolipid.

[2] = system: Candida tropicalis
Protocol: as §1, §2

[3] = system: Candida antartica
Protocol: as §1, §2

Structure (SMILES)	Inhibition % [1] [%]	Inhibition % [2] [%]	Inhibition % [3] [%]
CCCCCCOC(=O)CCCCCCC/C=C\CCCCCCC(C)O[C@@H]1O[C@H](CO)[C@@H](O)[C@H](O)[C@H]1O[C@@H]1O[C@H](CO)[C@@H](O)[C@H](O)[C@H]1O (relative stereo) [Hexyl SL, Hexyl 17-L-[(2′-O-β-D-glucopyranosyl-β-D-glucopyranosyl)-oxy]-cis-9-octadecenoate]	38	100	100
CCOC(=O)CCCCCCC/C=C\CCCCCCC(C)O[C@@H]1O[C@H](CO)[C@@H](O)[C@H](O)[C@H]1O[C@@H]1O[C@H](CO)[C@@H](O)[C@H](O)[C@H]1O (relative stereo) [SL - Ethyl Ester, Ethyl 17-L-([2′-O-β-D-glucopyranosyl-β-D-glucopyranosyl]-oxy)-cis-9-octadecenoate]	20	35	28
COC(=O)CCCCCCC/C=C\CCCCCC[C@H](C)O[C@@H]1O[C@H](CO)[C@@H](O)[C@H](O)[C@H]1O[C@@H]1O[C@H](CO)[C@@H](O)[C@H](O)[C@H]1O (relative stereo) [SL - Methyl Ester, Methyl 17-L-([2′-O-β-D-glucopyranosyl-β-D-glucopyranosyl]-oxy)-cis-9-octadecenoate]	100	100	71
CCOC(=O)CCCCCCC/C=C\CCCCCCC(C)O[C@@H]1O[C@H](COC(C)=O)[C@@H](O)[C@H](O)[C@H]1O[C@@H]1O[C@H](COC(C)=O)[C@@H](O)[C@H](O)[C@H]1O (relative stereo) [SL Ethyl Ester Diacetate, Ethyl 17-L-([2′-O-β-D-glucopyranosyl-β-D-glucopyranosyl]-oxy)-cis-9-octadecenoate 6′,6″-diacetate]	100	100	100
CCOC(=O)CCCCCCC/C=C\CCCCCC[C@H](C)O[C@@H]1O[C@H](CO)[C@@H](O)[C@H](O)[C@H]1O[C@@H]1O[C@H](COC(C)=O)[C@@H](O)[C@H](O)[C@H]1O (relative stereo) [SL Ethyl Ester Monoacetate, Ethyl 17-L-[(2′-O-β-D-glucopyranosyl-β-D-glucopyranosyl)-oxy]-cis-9-octadecenoate-6″-acetate]	100	35	42
